Measured values reported in ChEMBL document CHEMBL5653631, “A Potent and Selective ULK1 Inhibitor Suppresses Autophagy and Sensitizes Cancer Cells to Nutrient Stress” (iScience, 2018).
Each block holds one compound with its values, some of them ahead of it.

Columns and labels:
[1] = biological target: Tyrosine-protein kinase Fgr (Homo sapiens) (UniProt P09769); experiment: Inhibition of human recombinant FGR at 500 nM related to control ULK1
[2] = biological target: Serine/threonine-protein kinase 24 (Homo sapiens) (UniProt Q9Y6E0); experiment: Inhibition of human recombinant MST3 at 500 nM related to control ULK1
Sequence of Serine/threonine-protein kinase 24 (Homo sapiens) (Q9Y6E0 whole entry, looked up): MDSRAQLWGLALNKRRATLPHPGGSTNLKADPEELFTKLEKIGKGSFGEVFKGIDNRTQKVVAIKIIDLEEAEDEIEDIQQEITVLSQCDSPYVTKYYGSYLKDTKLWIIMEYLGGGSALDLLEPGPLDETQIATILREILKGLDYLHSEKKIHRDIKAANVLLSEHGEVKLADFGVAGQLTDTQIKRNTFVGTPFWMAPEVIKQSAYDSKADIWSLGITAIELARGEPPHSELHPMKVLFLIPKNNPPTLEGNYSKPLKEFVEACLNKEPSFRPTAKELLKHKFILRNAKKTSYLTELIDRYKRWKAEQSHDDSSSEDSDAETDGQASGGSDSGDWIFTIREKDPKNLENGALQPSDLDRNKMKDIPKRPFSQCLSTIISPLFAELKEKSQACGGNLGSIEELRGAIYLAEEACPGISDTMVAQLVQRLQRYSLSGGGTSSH

[3] = biological target: T1, Testis-specific serine/threonine-protein kinase 3 (Homo sapiens) (UniProt Q96PN8); experiment: Inhibition of human recombinant TSSK3 at 500 nM related to control ULK1
T1 sequence (whole entry): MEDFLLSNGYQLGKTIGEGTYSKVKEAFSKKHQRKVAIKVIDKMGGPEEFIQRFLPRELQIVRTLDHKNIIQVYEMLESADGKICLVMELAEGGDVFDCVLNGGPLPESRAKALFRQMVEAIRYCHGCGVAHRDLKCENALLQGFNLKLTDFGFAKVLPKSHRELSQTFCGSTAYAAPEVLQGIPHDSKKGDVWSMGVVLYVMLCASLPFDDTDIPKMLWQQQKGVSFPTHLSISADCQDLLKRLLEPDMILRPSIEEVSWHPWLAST

[4] = biological target: Calcium/calmodulin-dependent protein kinase type II subunit alpha (Homo sapiens) (UniProt Q9UQM7); experiment: Inhibition of human recombinant CaMK2a at 40 nM in presence of ATP by radiometric assay relative to control
Sequence of Calcium/calmodulin-dependent protein kinase type II subunit alpha (Homo sapiens) (Q9UQM7 whole entry): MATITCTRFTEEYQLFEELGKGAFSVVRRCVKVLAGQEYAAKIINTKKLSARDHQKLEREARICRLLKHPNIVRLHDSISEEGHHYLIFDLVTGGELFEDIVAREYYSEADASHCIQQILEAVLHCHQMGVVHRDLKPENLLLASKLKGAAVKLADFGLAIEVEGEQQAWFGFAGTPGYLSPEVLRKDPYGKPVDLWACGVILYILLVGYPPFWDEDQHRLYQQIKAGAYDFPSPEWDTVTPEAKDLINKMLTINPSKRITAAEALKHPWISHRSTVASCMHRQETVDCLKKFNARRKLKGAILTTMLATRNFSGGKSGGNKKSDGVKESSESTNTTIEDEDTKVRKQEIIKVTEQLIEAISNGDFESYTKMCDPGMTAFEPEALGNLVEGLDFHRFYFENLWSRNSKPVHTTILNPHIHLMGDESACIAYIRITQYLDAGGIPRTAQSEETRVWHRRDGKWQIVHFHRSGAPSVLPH

[5] = biological target: Tyrosine-protein kinase Fes/Fps (Homo sapiens) (UniProt P07332); experiment: Inhibition of human recombinant FES at 40 nM in presence of ATP by radiometric assay relative to control
Sequence of Tyrosine-protein kinase Fes/Fps (Homo sapiens) (P07332 whole entry): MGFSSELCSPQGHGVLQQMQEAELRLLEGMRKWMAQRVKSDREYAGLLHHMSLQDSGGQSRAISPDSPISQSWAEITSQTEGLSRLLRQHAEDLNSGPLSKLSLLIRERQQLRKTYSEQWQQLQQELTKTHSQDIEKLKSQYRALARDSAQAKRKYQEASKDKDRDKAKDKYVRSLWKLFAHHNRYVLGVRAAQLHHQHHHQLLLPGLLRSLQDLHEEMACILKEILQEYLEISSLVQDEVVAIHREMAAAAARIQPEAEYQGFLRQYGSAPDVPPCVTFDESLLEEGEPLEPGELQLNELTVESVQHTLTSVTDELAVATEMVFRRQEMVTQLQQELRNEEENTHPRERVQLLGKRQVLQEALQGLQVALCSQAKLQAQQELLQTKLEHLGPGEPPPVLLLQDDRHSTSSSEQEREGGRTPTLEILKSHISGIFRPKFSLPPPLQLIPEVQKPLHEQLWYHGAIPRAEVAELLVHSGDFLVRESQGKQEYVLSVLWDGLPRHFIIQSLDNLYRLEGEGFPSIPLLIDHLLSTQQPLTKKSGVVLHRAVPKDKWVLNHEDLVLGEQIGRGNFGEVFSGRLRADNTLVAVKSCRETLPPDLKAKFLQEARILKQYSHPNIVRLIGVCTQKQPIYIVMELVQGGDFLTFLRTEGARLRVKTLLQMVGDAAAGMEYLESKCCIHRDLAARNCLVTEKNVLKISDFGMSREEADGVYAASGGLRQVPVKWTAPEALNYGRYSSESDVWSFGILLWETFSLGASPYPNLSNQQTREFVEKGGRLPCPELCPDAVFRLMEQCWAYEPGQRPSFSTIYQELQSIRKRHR

[6] = biological target: Calcium/calmodulin-dependent protein kinase kinase 1 (Homo sapiens) (UniProt Q8N5S9); experiment: Inhibition of human recombinant CaMKK1 at 40 nM related to control ULK1
Sequence of Calcium/calmodulin-dependent protein kinase kinase 1 (Homo sapiens) (Q8N5S9 whole entry, looked up): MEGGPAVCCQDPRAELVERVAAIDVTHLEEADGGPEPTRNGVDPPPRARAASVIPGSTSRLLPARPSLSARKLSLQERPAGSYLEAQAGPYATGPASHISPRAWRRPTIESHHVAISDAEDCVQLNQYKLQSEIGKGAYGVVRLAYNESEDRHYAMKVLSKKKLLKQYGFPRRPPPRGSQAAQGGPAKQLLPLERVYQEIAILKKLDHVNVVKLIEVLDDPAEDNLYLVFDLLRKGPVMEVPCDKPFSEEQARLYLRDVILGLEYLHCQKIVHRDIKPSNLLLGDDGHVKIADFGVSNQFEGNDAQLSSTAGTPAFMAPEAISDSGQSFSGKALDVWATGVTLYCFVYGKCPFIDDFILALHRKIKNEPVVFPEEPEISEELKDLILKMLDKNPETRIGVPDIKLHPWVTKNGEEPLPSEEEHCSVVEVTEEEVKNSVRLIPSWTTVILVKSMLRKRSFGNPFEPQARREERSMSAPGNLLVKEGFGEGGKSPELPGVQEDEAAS

[7] = biological target: T2, cAMP-dependent protein kinase catalytic subunit PRKX (Homo sapiens) (UniProt P51817); experiment: Inhibition of human recombinant PRKX at 40 nM related to control ULK1
T2 sequence (whole entry): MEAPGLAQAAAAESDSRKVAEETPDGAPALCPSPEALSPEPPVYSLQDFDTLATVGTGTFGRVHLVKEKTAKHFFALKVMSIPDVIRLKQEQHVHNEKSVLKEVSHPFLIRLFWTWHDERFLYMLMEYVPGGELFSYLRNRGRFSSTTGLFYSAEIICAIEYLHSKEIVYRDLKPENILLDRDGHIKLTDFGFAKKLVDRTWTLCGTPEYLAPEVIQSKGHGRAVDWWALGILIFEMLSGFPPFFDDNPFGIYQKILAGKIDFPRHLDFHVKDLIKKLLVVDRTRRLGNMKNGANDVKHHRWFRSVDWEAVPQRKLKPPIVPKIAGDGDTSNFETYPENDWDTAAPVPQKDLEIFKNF

[8] = biological target: T3, Ephrin type-A receptor 1 (Homo sapiens) (UniProt P21709); experiment: Inhibition of human recombinant EphA1 at 15 nM in presence of ATP by radiometric assay relative to control
T3 sequence (whole entry): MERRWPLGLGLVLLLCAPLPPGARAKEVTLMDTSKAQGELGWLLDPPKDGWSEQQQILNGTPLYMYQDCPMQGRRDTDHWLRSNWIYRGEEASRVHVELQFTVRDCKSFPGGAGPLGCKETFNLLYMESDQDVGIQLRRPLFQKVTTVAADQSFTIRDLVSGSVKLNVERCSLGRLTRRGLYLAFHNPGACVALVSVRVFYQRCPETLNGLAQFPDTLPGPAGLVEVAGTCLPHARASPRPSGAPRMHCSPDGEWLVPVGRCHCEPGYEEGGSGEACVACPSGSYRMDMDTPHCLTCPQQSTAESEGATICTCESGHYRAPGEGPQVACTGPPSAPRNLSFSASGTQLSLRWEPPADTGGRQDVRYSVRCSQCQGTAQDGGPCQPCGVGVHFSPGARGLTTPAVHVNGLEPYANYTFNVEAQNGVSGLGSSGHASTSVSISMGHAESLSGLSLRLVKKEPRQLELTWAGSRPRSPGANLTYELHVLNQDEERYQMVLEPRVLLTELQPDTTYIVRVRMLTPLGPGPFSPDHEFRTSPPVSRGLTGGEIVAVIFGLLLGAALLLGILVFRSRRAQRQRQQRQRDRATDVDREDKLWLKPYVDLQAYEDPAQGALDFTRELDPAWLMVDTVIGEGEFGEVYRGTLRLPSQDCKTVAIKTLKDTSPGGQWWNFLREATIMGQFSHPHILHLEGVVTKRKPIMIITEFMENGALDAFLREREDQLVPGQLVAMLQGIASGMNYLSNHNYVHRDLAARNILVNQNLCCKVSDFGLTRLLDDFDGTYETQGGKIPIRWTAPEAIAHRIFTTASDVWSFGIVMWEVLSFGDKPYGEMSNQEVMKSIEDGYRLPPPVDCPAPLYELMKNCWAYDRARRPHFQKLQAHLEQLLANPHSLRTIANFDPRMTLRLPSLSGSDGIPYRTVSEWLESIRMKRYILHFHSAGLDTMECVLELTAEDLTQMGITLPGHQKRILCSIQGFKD

[9] = biological target: Serine/threonine-protein kinase mTOR (Homo sapiens) (UniProt P42345); experiment: Inhibition of human recombinant FRAP at 15 nM in presence of ATP by radiometric assay relative to control
[10] = biological target: Glycogen synthase kinase-3 beta (Homo sapiens) (UniProt P49841); experiment: Inhibition of human recombinant GSK3B at 15 nM in presence of ATP by radiometric assay relative to control
Sequence of Glycogen synthase kinase-3 beta (Homo sapiens) (P49841 whole entry, looked up): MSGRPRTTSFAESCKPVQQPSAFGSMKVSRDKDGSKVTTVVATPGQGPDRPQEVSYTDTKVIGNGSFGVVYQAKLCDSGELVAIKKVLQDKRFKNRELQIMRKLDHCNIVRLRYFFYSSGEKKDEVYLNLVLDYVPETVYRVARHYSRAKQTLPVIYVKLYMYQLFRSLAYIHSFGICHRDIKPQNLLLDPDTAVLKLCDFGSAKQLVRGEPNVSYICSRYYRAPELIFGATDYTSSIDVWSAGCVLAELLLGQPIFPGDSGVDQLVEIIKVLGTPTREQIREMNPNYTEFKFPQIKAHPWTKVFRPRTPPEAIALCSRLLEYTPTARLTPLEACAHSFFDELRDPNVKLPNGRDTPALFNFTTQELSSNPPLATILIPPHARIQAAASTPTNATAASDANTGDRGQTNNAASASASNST

[11] = biological target: Mitogen-activated protein kinase kinase kinase 10 (Homo sapiens) (UniProt Q02779); experiment: Inhibition of human recombinant MLK2 at 15 nM related to control ULK1
Sequence of Mitogen-activated protein kinase kinase kinase 10 (Homo sapiens) (Q02779 whole entry, looked up): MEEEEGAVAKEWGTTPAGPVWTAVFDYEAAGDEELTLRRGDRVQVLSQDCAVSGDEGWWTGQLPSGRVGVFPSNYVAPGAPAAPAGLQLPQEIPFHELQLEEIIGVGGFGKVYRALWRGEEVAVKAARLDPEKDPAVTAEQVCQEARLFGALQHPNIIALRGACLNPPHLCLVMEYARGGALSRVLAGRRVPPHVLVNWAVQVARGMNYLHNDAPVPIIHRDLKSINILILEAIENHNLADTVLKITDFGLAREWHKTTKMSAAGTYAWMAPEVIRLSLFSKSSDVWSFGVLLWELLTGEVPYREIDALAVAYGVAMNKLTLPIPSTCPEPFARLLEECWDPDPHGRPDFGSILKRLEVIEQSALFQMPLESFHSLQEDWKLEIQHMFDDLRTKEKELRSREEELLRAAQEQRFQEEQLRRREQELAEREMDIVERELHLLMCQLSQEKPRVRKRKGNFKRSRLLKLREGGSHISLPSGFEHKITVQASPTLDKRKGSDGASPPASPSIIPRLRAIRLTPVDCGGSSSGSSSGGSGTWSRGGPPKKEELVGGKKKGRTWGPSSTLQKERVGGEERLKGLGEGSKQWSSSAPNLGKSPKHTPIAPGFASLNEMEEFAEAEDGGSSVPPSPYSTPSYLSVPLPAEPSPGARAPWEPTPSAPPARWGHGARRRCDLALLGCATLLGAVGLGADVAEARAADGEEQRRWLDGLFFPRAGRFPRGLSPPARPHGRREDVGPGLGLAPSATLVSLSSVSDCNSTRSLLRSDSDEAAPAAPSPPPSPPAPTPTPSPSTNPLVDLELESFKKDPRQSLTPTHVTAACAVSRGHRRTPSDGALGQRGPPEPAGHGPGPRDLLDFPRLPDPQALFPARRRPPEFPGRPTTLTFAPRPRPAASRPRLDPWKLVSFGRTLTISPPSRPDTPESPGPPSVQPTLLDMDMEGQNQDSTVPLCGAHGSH

[12] = biological target: T4, Rhodopsin kinase GRK1 (Homo sapiens) (UniProt Q15835); experiment: Inhibition of human recombinant RHOK at 15 nM related to control ULK1
T4 sequence (whole entry): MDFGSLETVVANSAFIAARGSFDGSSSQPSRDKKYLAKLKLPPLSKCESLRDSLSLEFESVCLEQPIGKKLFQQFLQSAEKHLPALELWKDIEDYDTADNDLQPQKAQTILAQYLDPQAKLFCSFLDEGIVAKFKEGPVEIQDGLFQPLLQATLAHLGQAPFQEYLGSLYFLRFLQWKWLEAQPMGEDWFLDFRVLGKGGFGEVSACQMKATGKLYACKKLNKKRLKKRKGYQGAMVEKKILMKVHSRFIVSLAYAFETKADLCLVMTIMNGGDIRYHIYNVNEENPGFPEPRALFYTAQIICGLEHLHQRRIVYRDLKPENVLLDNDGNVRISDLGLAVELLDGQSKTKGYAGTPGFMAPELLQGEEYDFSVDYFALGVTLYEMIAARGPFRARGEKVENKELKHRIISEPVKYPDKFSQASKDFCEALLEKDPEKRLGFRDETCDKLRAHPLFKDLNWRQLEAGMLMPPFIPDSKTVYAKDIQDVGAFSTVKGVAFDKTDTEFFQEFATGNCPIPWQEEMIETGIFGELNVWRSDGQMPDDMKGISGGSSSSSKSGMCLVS

Sequence of Tyrosine-protein kinase Fgr (Homo sapiens) (P09769 2-529 limits assumed): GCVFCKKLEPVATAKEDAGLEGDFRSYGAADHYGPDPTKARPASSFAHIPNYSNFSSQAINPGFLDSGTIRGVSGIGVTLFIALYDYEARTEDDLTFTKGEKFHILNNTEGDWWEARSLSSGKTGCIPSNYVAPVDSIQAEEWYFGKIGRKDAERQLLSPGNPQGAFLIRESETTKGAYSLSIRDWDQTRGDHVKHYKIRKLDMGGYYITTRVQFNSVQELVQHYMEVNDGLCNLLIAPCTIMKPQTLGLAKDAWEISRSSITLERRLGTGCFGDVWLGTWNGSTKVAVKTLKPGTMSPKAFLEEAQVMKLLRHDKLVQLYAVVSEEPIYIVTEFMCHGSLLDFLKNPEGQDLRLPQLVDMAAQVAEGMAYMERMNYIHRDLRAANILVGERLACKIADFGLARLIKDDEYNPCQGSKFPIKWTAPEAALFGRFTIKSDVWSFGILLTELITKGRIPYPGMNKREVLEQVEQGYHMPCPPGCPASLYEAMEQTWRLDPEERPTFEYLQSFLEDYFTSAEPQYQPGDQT

fold change (FC) [1]: 0.11 | fold change (FC) [2]: 0.78 | fold change (FC) [3]: 0
Structure (SMILES): CNC(=O)c1ccccc1Oc1nc(Nc2cc(OC)c(OC)c(OC)c2)ncc1Br

inhibition [4]: 0% | inhibition [5]: 15% | fold change (FC) [6]: 0 | fold change (FC) [7]: 0.27
Structure (SMILES): O=C(N[C@@H](C1CC1)C(F)(F)F)c1cc(-c2cnn3cc(-c4ccc(F)cc4)cnc23)cs1

inhibition [8]: 0% | inhibition [9]: 0% | inhibition [10]: 11% | fold change (FC) [11]: 0.14 | fold change (FC) [12]: 0
Structure (SMILES): CC(C)[C@H](NC(=O)c1cc(-c2cnn3cc(-c4ccc(OCCN5CCCCC5)cc4)cnc23)cs1)C(F)(F)F
